Source: patent US20100056524A1, “Compound” (priority 2008, published 2010)
Where a name gives a salt, the structure may show the parent alone. Read-outs that look alike come from different tables or passages of the source.

Biological target: T1, TBK1 (Homo sapiens, UniProt Q9UHD2)
T1 construct: All protein kinases were of human origin and encoded full length proteins, unless indicated otherwise; His6; made in house; host or cells: insect Sf21 cells
T1 sequence (Q9UHD2 1-729): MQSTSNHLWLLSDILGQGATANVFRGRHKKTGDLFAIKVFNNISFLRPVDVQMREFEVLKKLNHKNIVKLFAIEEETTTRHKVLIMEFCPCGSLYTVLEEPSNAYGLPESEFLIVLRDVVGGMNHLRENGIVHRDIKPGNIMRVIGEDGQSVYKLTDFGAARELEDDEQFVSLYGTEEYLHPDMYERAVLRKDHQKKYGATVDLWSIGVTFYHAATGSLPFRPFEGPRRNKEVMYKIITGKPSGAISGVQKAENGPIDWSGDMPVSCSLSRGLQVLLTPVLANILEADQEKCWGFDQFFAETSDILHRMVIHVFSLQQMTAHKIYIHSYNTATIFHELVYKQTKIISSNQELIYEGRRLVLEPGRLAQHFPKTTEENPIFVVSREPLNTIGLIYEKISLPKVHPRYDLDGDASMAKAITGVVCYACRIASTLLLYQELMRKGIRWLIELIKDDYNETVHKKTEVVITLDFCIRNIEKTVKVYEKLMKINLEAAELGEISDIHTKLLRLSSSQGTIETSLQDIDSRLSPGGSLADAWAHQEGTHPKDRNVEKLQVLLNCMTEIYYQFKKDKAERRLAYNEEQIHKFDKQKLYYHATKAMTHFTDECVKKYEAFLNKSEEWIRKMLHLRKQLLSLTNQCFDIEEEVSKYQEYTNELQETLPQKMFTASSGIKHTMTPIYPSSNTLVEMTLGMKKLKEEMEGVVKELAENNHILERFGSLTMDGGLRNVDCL
Experiment: TBK1 protein kinase assay ([γ-33P]ATP, P81 filterplates)
Assay type: biochemical
Details: for IC50: 50 μM ATP
Method in brief: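 Human TBK1 assayed for 30 min with peptide substrate (300 μM), 50 μM [γ-33P]ATP and 10 mM magnesium acetate in 50 mM Tris/HCl pH 7.5, 0.1 mM EGTA, 0.1% 2-mercaptoethanol. Stopped with orthophosphoric acid and counted on P81 filters. IC50 from 10 compound concentrations.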

[1] = read-out: Potency (TBK1 IC50 potency score)

Row | Compound | IC50 [1] | other results
1 | CC(C)CN(C)Cc1cccc(Nc2ncc(C3CC3)c(NCCCNC(=O)C3CCC3)n2)c1 [Example 133, Cyclobutanecarboxylic acid [3-(5-cyclopropyl-2-{3-[(isobutyl-methyl-amino)-methyl]-phenylamino}-pyrimidin-4-ylamino)-propyl]-amide] | < 0.1 µM | –
2 | CCc1cnc(Nc2cccc(F)c2)nc1NCCCNC(=O)C1CCC1 [Compound D, cyclobutanecarboxylic acid {3-[5-ethyl-2-(3-fluoro-phenylamino)-pyrimidin-4-ylamino]-propyl}-amide, reference compound] | – | IC50 (Table 5, read-out: TBK1 IC50): 0.042 µM; fold loss in activity against TBK1 compared to Example 23 (from TBK1 IC50 values of Table 5): 10 fold
3 | O=C(NCCCNc1nc(Nc2ccc(I)nc2)ncc1C1CC1)C1CCC1 [Example 98, Cyclobutanecarboxylic acid {3-[5-cyclopropyl-2-(6-iodo-pyridin-3-ylamino)-pyrimidin-4-ylamino]-propyl}-amide] | < 0.1 µM | –
4 | O=C(NCCCNc1nc(Nc2ccc3cnn(C4CC4)c3c2)ncc1C1CC1)C1CCC1 [Example 211, Cyclobutanecarboxylicacid{3-[5-cyclopropyl-2-(1-cyclopropyl-1H-indazol-6-ylamino)-pyrimidin-4-ylamino]-propyl}-amide] | < 0.1 µM | –
5 | O=c1c(C(F)(F)F)cccn1CCCNc1nc(Nc2cccc(F)c2)ncc1C1CC1 [Example 114, 1-{3-[5-Cyclopropyl-2-(3-fluoro-phenylamino)-pyrimidin-4-ylamino]-propyl}-3-trifluoromethyl-1H-pyridin-2-one] | 0.1 to 1 µM | –
6 | CN1CCN(C(=O)c2ccc(Nc3ncc(C4CC4)c(NCCCNC(=O)C4CCC4)n3)cc2)CC1 [Example 175, Cyclobutanecarboxylic acid (3-{5-cyclopropyl-2-[4-(4-methyl-piperazine-1-carbonyl)-phenylamino]-pyrimidin-4-ylamino}-propyl)-amide] | < 0.1 µM | –
7 | O=C(NCCCNc1nc(Nc2ccc3c(cnn3CC3CC3)c2)ncc1C1CC1)C1CCC1 [Example 212, Cyclobutanecarboxylicacid{3-[5-cyclopropyl-2-(1-cyclopropylmethyl-1H-indazol-5-ylamino)-pyrimidin-4-ylamino]-propyl}-amide] | < 0.1 µM | –
8 | O=C(NCCCNc1nc(Nc2ccc(-c3cnco3)cc2)ncc1C1CC1)C1CCC1 [Example 181, Cyclobutanecarboxylic acid {3-[5-cyclopropyl-2-(4-oxazol-5-yl-phenylamino)-pyrimidin-4-ylamino]-propyl}-amide] | < 0.1 µM | –
9 | CN1CCc2ccc(Nc3ncc(C4CC4)c(NCCCNC(=O)C4CCC4)n3)cc2C1 [Example 197, Cyclobutanecarboxylic acid {3-[5-cyclopropyl-2-(2-methyl-1,2,3,4-tetrahydro-isoquinolin-7-ylamino)-pyrimidin-4-ylamino]-propyl}-amide] | < 0.1 µM | –
10 | O=C(NCCCNc1nc(Nc2cccc(-c3nnn[nH]3)c2)ncc1C1CC1)C1CCC1 [Example 94, Cyclobutanecarboxylic acid (3-{5-cyclopropyl-2-[3-(2H-tetrazol-5-yl)-phenylamino]-pyrimidin-4-ylamino}-propyl)-amide] | 0.1 to 1 µM | –
11 | CN1CCN(CCCNc2nc(Nc3cccc(F)c3)ncc2C2CC2)C1=O [Example 112, 1-{3-[5-Cyclopropyl-2-(3-fluoro-phenylamino)-pyrimidin-4-ylamino]-propyl}-3-methyl-imidazolidin-2-one] | 0.1 to 1 µM | –
12 | CN(C)Cc1ccc(Nc2ncc(C3CC3)c(NCCCNC(=O)C3CCC3)n2)cc1 [Example 173, Cyclobutanecarboxylic acid (3-{5-cyclopropyl-2-[4-(2-dimethylamino-methyl)-phenylamino]-pyrimidin-4-ylamino}-propyl)-amide] | < 0.1 µM | –
13 | O=C(C1CCC1)N1CC(CNc2nc(Nc3cccc(F)c3)ncc2C2CC2)C1 [Example 162, Cyclobutyl-(3-{[5-cyclopropyl-2-(3-fluoro-phenylamino)-pyrimidin-4-ylamino]-methyl}-azetidin-1-yl)-methanone] | 0.1 to 1 µM | –
14 | CN(CCCNc1nc(Nc2cccc(F)c2)ncc1C1CC1)C(=O)C1CCC1 [Example 107, Cyclobutanecarboxylic acid {3-[5-cyclopropyl-2-(3-fluoro-phenylamino)-pyrimidin-4-ylamino]-propyl}-methyl-amide] | < 0.1 µM | –
15 | CN(C)CCN(C)c1ccc(Nc2ncc(C3CC3)c(NCCCNC(=O)C3CCC3)n2)cn1 [Example 100, Cyclobutanecarboxylic acid [3-(5-cyclopropyl-2-{6-[(2-dimethylamino-ethyl)-methyl-amino]-pyridin-3-ylamino}-pyrimidin-4-ylamino)-propyl]-amide] | < 0.1 µM | –
16 | O=C(NCCCNc1nc(Nc2ccc(-c3ccncc3)nc2)ncc1C1CC1)C1CCC1 [Example 119, Cyclobutanecarboxylic acid {3-[2-([2,4′]bipyridinyl-5-ylamino)-5-cyclopropyl-pyrimidin-4-ylamino]-propyl}-amide] | < 0.1 µM | –
17 | O=C(NCCCNc1nc(Nc2ccc(Cn3cncn3)cc2)ncc1C1CC1)C1CCC1 [Example 182, Cyclobutanecarboxylic acid {3-[5-cyclopropyl-2-(4-1,2,4-triazol-1-ylmethyl-phenylamino)-pyrimidin-4-ylamino]-propyl}-amide] | < 0.1 µM | –

The next lines start with results.

Row | IC50 [1] | Compound | other results
18 | < 0.1 µM | O=C(NCCCNc1nc(Nc2cccc(F)c2)ncc1C1CC1)C1CCCC1 [Example 22, Cyclopentanecarboxylic acid {3-[5-cyclopropyl-2-(3-fluoro-phenylamino)pyrimidin-4-ylamino]-propyl}-amide] | –
19 | 0.1 to 1 µM | O=C(NCCCNc1nc(Nc2cccc(F)c2)ncc1C1CC1)c1cocn1 [Example 19, Oxazole-4-carboxylic acid {3-[5-cyclopropyl-2-(3-fluoro-phenylamino)-pyrimidin-4-ylamino]-propyl}-amide] | –
20 | 1 to 10 µM | CC(C)(C)OC(=O)Nc1cccc(Nc2ncc(C3CC3)c(NCCCNC(=O)c3cccs3)n2)c1 [Example 31, [3-(5-Cyclopropyl-4-{3-[(thiophene-2-carbonyl)-amino]-propylamino}-pyrimidin-2-ylamino)-phenyl]-carbamic acid tert-butyl ester] | –
21 | 0.1 to 1 µM | CN(C)c1cccc(Nc2ncc(C3CC3)c(NCCCNC(=O)c3cccs3)n2)c1 [Example 44, Thiophene-2-carboxylic acid {3-[5-cyclopropyl-2-(3-dimethylamino-phenylamino)-pyrimidin-4-ylamino]-propyl}-amide trifluoroacetic acid salt] | –
22 | 0.1 to 1 µM | CC(=O)Nc1cccc(Nc2ncc(C3CC3)c(NCCCN3CCCC3=O)n2)c1 [Example 39, N-(3-{5-Cyclopropyl-4-[3-(2-oxo-pyrrolidin-1-yl)-propylamino]-pyrimidin-2-ylamino}-phenyl)-acetamide trifluoroacetate salt] | –
23 | 0.1 to 1 µM | O=C(NCCCNc1nc(Nc2cccc(N3CCOCC3)c2)ncc1C1CC1)c1cccs1 [Example 46, Thiophene-2-carboxylic acid {3-[5-cyclopropyl-2-(3-morpholin-4-yl-phenylamino)-pyrimidin-4-ylamino]-propyl}-amide trifluoroacetic acid salt] | –
24 | 0.1 to 1 µM | O=C(NCCCNc1nc(Nc2cccc(F)c2)ncc1C1CC1)c1ccn[nH]1 [Example 7, 2H-Pyrazole-3-carboxylic acid {3-[5-cyclopropyl-2-(3-fluoro-phenylamino)-pyrimidin-4-ylamino]-propyl}-amide trifluoroacetic acid salt] | –
25 | < 0.1 µM | O=C(NCCCNc1nc(Nc2cccc(CN3CCCCC3)c2)ncc1C1CC1)C1CCC1 [Example 134, Cyclobulanecarboxylic acid {3-[5-cyclopropyl-2-(3-piperidin-1-ylmethyl-phenylamino)-pyrimidin-4-ylamino]-propyl}-amide] | –
26 | 0.1 to 1 µM | O=C(NCCCNc1nc(Nc2cccc(F)c2)ncc1C1CC1)c1cccs1 [Example 26, Thiophene-2-carboxylic acid {3-[5-cyclopropyl-2-(3-fluoro-phenylamino)-pyrimidin-4-ylamino]-propyl}-amide] | –
27 | < 0.1 µM | O=C(NCCCNc1nc(Nc2cccc(F)c2)ncc1C1CC1)c1cncs1 [Example 11, Thiazole-5-carboxylic acid {3-[5-cyclopropyl-2-(3-fluoro-phenylamino)-pyrimidin-4-ylamino]-propyl}-amide] | –
28 | < 0.1 µM | CC(C)(c1cccc(Nc2ncc(C3CC3)c(NCCCNC(=O)C3CCC3)n2)c1)N1CCOCC1 [Example 145, Cyclobutanecarboxylic acid (3-{5-cyclopropyl-2-[3-(1-methyl-1-morpholin-4-yl-ethyl)-phenylamino]-pyrimidin-4-ylamino}-propyl)-amide] | –
